The values that follow come from US20170273917A1, “NMDA RECEPTOR ANTAGONISTS FOR TREATING GAUCHER DISEASE” (Yeda Research and Development Co. Ltd., priority 2014, published 2017).

The target of the assay is T1, GBA1 (Mus musculus, UniProt P17439).
T1 construct: from tissue; host or cells: mouse brain (frozen half-brain homogenate) of inbred strains treated in vivo with PBS, CBE or CBE plus memantine
T1 sequence (P17439 20-515): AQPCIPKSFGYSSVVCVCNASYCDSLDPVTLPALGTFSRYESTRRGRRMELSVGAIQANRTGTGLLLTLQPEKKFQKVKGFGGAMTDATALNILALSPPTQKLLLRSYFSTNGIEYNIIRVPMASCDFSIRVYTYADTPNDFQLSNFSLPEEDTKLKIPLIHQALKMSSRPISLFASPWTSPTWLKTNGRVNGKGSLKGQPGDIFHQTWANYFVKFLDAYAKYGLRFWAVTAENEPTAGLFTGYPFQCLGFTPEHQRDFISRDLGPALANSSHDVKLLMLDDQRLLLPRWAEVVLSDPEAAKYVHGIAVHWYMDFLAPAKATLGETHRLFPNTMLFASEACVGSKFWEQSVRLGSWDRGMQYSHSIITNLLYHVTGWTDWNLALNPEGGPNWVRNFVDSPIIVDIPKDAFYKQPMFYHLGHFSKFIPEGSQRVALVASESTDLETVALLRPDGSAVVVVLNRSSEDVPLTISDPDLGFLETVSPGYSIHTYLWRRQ
Briefly: GBA1 activity assay in brain homogenates of treated mice. The assay is classed as in vivo. The note with it: mice treated for 10 days with CBE vs PBS; all strains tested; brains harvested P18. The method, then:
GBA1 activity assay—GBA1 activity was performed as previously described (Farfel-Becker et al. Hum Mol Genet. 2014; 23(4):843-54). Briefly, frozen half-brain samples were sonicated in Mcllvaine's buffer (0.1 M citric acid, pH 4.2, 0.2 M Na2HPO4, 29:21, vol:vol). Tissue homogenates containing 50 μg of protein were incubated at 37° C. with 8 μM C6-NBD-GlcCer (Avanti Polar Lipids, Alabaster, Ala., USA) in a final volume of 25 μl Mcllvaine's buffer for 30 minutes. Lipids were extracted and the lower phase separated by thin layer chromatography using chloroform:methanol:9.8 mM CaCl2 (60:35:8, vol:vol:vol) as the developing solvent. C6-NBD-ceramide was identified with an authentic standard using a Typhoon 9410 variable mode imager and bands were quantified by Image-QuantTL (GE Healthcare, Chalfont St Giles, UK).
To eliminate the possibility that the phenotypic differences observed in the different mouse strains were caused by differential CBE metabolism in the brain, GBA1 enzymatic activity in mice treated for 10 days with CBE or PBS (control) was measured. […] Overall, the remaining GBA1 activity was 5-10% of the controls (FIG. 3A). There was no correlation between GBA1 activity in the brain and life spans neither in the PBS(R^2=0.126, data not shown) nor CBE conditions (R^2=0.0581, FIG. 3B). In addition, no correlation was found between inhibition of GBA1 activity and life span when evaluated according to strains (R^2=0.0085, data not shown).

Molecules are shown by their SMILES.

As for `O[C@H]1[C@H](O)[C@@H](O)[C@@H]2O[C@@H]2[C@@H]1O` [CBE, Conduritol-β-epoxide], the “remaining cerebral GBA1 activity” value is 5-10 % of the controls.
